These results are taken from US7176237B2, “Tricyclic-bis-enone derivatives and methods of use thereof” (The Trustees of Dartmouth College, priority 2002, dated 2007).

Series [1] relates to NO production induced by IFN-γ in mouse macrophages. The series is described as follows: iNOS assay: inhibition of NO production induced by IFN-γ in mouse macrophages. The series is classed as cell-based. The following applies: for pIC50: Macrophage.
In series [2] the test system is iNOS mRNA in RAW 264.7 cells. The series is described as follows: Suppression of iNOS mRNA formation in RAW 264.7 cells. The series is classed as cell-based. As for the experimental part:
(§1) Standard methodology already in place in the inventors laboratory (Suh et al., 1998, 1999, incorporated herein by reference) can be used to evaluate the biological activity of newly synthesized TBEs using suppression of de novo synthesis of iNOS and COX-2 as endpoints. Briefly, primary mouse macrophages or RAW264.7 cells can be cultured under standard conditions and stimulated with either interferon-γ or lipopolysaccharide (LPS). TBEs are added to cell cultures at the same time as inducers. Nitric oxide production in cell culture supernatants can be measured as nitrite accumulation by the Griess reaction. Analysis of levels of iNOS protein in lysates of primary macrophages or RAW cells can be done by Western blot analysis, while levels of iNOS mRNA can be done by routine Northern blot analysis. Prostaglandin E2 production is measured with a commercially available ELISA assay kit, and […] protein and mRNA levels can measured by routine Western and Northern blot analysis, respectively. All these methods are well known in the art.

Series [3] concerns COX-2 mRNA in RAW 264.7 cells. Put plainly: Suppression of COX-2 mRNA formation in RAW 264.7 cells. The series is classed as cell-based. As for the experimental part:
as §1

For series [4], the system named is NRP-152 prostate epithelial cells. Put plainly: Inhibition of proliferation of NRP-152 prostate epithelial cells. The following applies: Rattus norvegicus, Epithelial cell, read-out: IC50 level, inhibition of proliferation. The series is classed as cell-based.
The subject of series [5] is MCF-7 breast cancer cells (ER-positive). The series is described as follows: Inhibition of estrogen-stimulated growth of MCF-7 breast cancer cells. The series is classed as cell-based, human.
The test system of series [6] is activation of macrophages in CD-1 mice. The series is classed as in vivo.
The subject of series [7] is several cancer cell lines. The series is described as follows: Inhibitory activity against several cancer cell lines (data not shown). The series is classed as cell-based.
[8] abbreviates: blocking of induction of iNOS by IFN-γ, NO production in mouse macrophages, read-out: Activity IC50.

pIC50: −log10 of the molar value. Like-named read-outs stand apart in the source and are kept apart here. A value given as a limit tells only on which side of the number the result lay.

Take `CC1(C)C(=O)C(C#N)=C[C@]2(C)C3=CCC[C@@H](O)[C@]3(C)CC[C@@H]12` (racemic) [(±)-TBE-1]: the pIC50 in series [1] (setting [8]) is 6.51.

Turning to `CC(=O)O[C@@H]1CCC=C2[C@@]3(C)C=C(C#N)C(=O)C(C)(C)[C@@H]3CC[C@]21C` (racemic) [(±)-TBE-2], in series [1] (setting [8]), the pIC50 is 6.32.

For the molecule `CC(=O)O[C@@H]1CC(=O)C=C2[C@@]3(C)C=C(C#N)C(=O)C(C)(C)[C@@H]3CC[C@]21C` (racemic) [(±)-TBE-3], the pIC50 is 7.28 in series [1] (setting [8]) and around 7.00 in series [4]. The “potency, times less than CDDO (iNOS mRNA)” value in series [2] (RAW cells) is “about 10 times”. Besides, the “formation of iNOS mRNA” value in series [2] (at 1 μM in RAW cells) was “suppresses”. In addition, the “potency, times less than CDDO (COX-2 mRNA)” value in series [3] (RAW cells) was “about 10 times”. Also, in series [3] (at 1 μM in RAW cells), the “formation of COX-2 mRNA” value is reported as “suppresses”.

With `CC1(C)C(=O)C(C#N)=C[C@]2(C)C3=CC(=O)C[C@@H](O)[C@]3(C)CC[C@@H]12` (racemic) [(±)-TBE-4], in series [1] (setting [8]), the pIC50 was 7.12.

As to `CC1(C)C(=O)C(C#N)=C[C@]2(C)C3=CC(=O)C=C[C@]3(C)CC[C@@H]12` (racemic) [(±)-TBE-5], the pIC50 in series [1] (NO production induced by IFN-γ in mouse macrophages, order-of-magnitude level, read-out: IC50 level stated in text) is around 8.00; in series [1] (setting [8]), 7.21; in series [4] it was around 7.00.

Consider `COC(=O)C1=C[C@]2(C)CC[C@H]3C(C)(C)C(=O)C(C#N)=C[C@]3(C)C2=CC1=O` (racemic) [(±)-TBE-6], for which the pIC50 in series [1] (setting [8]) was 7.04.

`CC1(C)C(=O)C(C#N)=C[C@]2(C)C3=CC(=O)C(C(=O)O)=C[C@]3(C)CC[C@@H]12` (racemic) [(±)-TBE-7]: the pIC50 in series [1] (setting [8]) is 5.80.

In the case of `CC1(C)C(=O)C(C#N)=C[C@]2(C)C3=CC(=O)C(C(N)=O)=C[C@]3(C)CC[C@@H]12` (racemic) [(±)-TBE-8], the pIC50 in series [1] (setting [8]) is 7.21.

For `CC1(C)C(=O)C(C#N)=C[C@]2(C)C3=CC(=O)C(C#N)=C[C@]3(C)CC[C@@H]12` (racemic) [(±)-TBE-9], the “times more potent than TBE-5” value in series [1] is reported as around 30 times. The pIC50 in series [1] (setting [8]) is 8.68. For the same molecule, the pIC50 in series [1] (Mus musculus, iNOS assay, order-of-magnitude level, read-out: IC50 level stated in text) is around 9.00. Moreover, in series [1] (iNOS assay), the “potency in iNOS assay, statement in words” value (shortened to “potency in iNOS assay”) is listed as “highest potency” and the “times more potent than hydrocortisone” value is on record as “about 5 times”. Besides, the “potency, times more than TBE-5” value in series [5] is “about 30 times”. Moreover, the “concentration range of dose-dependent inhibition of estrogen-stimulated growth” value in series [5] (MCF-7 (ER-positive)) lay in the range of 10 to 1000 nM. The signs of toxicity result in series [6] (15 and 30 mg/kg oral, mouse) is recorded as “no signs of toxicity”. For the same molecule, the “oral activity in vivo” value in series [6] (15 and 30 mg/kg, administered once, oral, mouse) is “orally active”. In addition, the “activation of macrophages in mice” value in series [6] (CD-1 mice) is recorded as “blocks the activation of macrophages”. Also, the “in vivo potency compared with hydrocortisone” value in series [6] (mouse peritoneal inflammation) was “much more potent than hydrocortisone”.

Consider `CC1(C)C(=O)C(C#N)=C[C@]2(C)C3=CC(=O)CC[C@]3(C)CC[C@@H]12` (racemic) [(±)-TBE-10], for which the “times more potent than TBE-5” value in series [1] is given as “about 3 times”. The pIC50 in series [1] (setting [8]) is 7.72.

For the molecule `CC1(C)C(=O)C(C#N)=C[C@@]2(C)C3=CC(=O)C=C[C@@]3(C)CC[C@H]12` [(+)-TBE-5], the pIC50 in series [1] (setting [8]) is 7.19. In addition, the “potency in iNOS assay” value in series [1] (iNOS assay) is reported as “same potency”. In series [7], the “inhibitory activity against several cancer cell lines, enantiomers compared” value is “same inhibitory activity”.

Turning to `CC1(C)C(=O)C(C#N)=C[C@]2(C)C3=CC(=O)C=C[C@]3(C)CC[C@@H]12` [(−)-TBE-5], the pIC50 in series [1] (setting [8]) was 7.24. Besides, the “potency in iNOS assay” value in series [1] (iNOS assay) is recorded as “same potency”. The “inhibitory activity against several cancer cell lines, enantiomers compared” value in series [7] was “same inhibitory activity”.

As for `C[C@]12CCC(=O)C=C1CC[C@@H]1[C@@H]2[C@@H](O)C[C@@]2(C)[C@H]1CC[C@]2(O)C(=O)CO` [Hydrocortisone, reference compound], the pIC50 in series [1] (setting [8]) was 8.00.

`CC1(C)CC[C@]2(C(=O)O)CC[C@]3(C)C(=CC[C@@H]4[C@@]5(C)CC[C@H](O)C(C)(C)[C@@H]5CC[C@]43C)[C@@H]2C1` [Oleanolic acid, reference compound]: the pIC50 in series [1] (setting [8]) is below 4.40.
